Reference: ChEMBL document CHEMBL1671795, “Evaluation of endogenous fatty acid amides and their synthetic analogues as potential anti-inflammatory leads” (Bioorg Med Chem, 2011)

Tests used:
RAW264.7 [1] = experiment: Antiinflammatory activity against LPS-stimulated mouse RAW264.7 cells assessed as inhibition of IL-6 production at 1 to 15 uM after 18 hrs by ELISA; assay type: functional, cell-based
RAW264.7 [2] = experiment: Antiinflammatory activity against LPS-stimulated mouse RAW264.7 cells assessed as inhibition of TNFalpha production at 1 to 15 uM after 18 hrs by ELISA; assay type: functional, cell-based
HaCaT [3] = experiment: Cytotoxicity against human HaCaT cells at 50 to 100 uM after 24 hrs by MTT assay; assay type: cell-based
RAW264.7 [4] = experiment: Cytotoxicity against mouse RAW264.7 cells at 100 uM after 24 hrs by MTT assay; assay type: cell-based; details: raw264.7, 24 h
HaCaT [5] = experiment: Antiinflammatory activity against IFN-gamma-stimulated human HaCaT cells assessed as inhibition of chemokine MDC production at 50 to 100 uM after 18 hrs by ELISA; assay type: functional, cell-based
[6] = Cytotoxicity against mouse RAW264.7 cells after 24 hrs by MTT assay; assay type: cell-based; details: read-out: TC50
RAW264.7 [7] = experiment: Antiinflammatory activity against LPS-stimulated mouse RAW264.7 cells assessed as inhibition of NO production at 3.125 to 25 uM after 24 hrs by Griess method; assay type: functional, cell-based
RAW264.7 [8] = experiment: Cytotoxicity against mouse RAW264.7 cells at 50 uM after 24 hrs by MTT assay; assay type: cell-based; details: raw264.7, 24 h
RAW264.7 [9] = experiment: Antiinflammatory activity against LPS-stimulated mouse RAW264.7 cells assessed as inhibition of IL1-beta production at 1 to 15 uM after 18 hrs by ELISA; assay type: functional, cell-based

| IC50 (RAW264.7 [7]; Mus musculus, RAW264.7, 24 h) [nM] | SMILES | Activity (RAW264.7 [1]) | Activity (RAW264.7 [2]) | Activity (HaCaT [3]) | Activity (RAW264.7 [4]) | Activity (HaCaT [5]) | CC50 at 24 h [6] [µM] | Activity (RAW264.7 [7]) | Activity (RAW264.7 [7]; record 2) [µM] | Activity (RAW264.7 [8]) | Activity (RAW264.7 [9]) |
| --- | --- | --- | --- | --- | --- | --- | --- | --- | --- | --- | --- |
|  | CCCCCCCC/C=C\CCCCCCCCCCCC(=O)NCCc1ccc(O)c(O)c1 | Dose-dependent effect | Dose-dependent effect | Toxic | Toxic | Non-toxic | 13 | Dose-dependent effect | 2 | Toxic | Dose-dependent effect |
|  | CCCCCCCC/C=C\CCCCCCCCCCCC(=O)NCc1ccc(O)c(OC)c1 | Dose-dependent effect | Dose-dependent effect | Toxic |  | Non-toxic |  |  |  |  | Dose-dependent effect |
|  | CCCCC/C=C\C/C=C\CCCCCCCC(=O)NCc1ccc(O)c(OC)c1 | Dose-dependent effect | Dose-dependent effect | Toxic |  | Non-toxic |  |  |  |  | Dose-dependent effect |
|  | CCCCCCCC/C=C\CCCCCCCC(=O)NCc1ccc(O)c(OC)c1 [OLVANIL] | Dose-dependent effect | Dose-dependent effect | Toxic |  | Non-toxic |  |  |  |  | Dose-dependent effect |
|  | CC/C=C\C/C=C\C/C=C\CCCCCCCC(=O)NCc1ccc(O)c(OC)c1 | Dose-dependent effect | Dose-dependent effect | Toxic |  | Non-toxic |  |  |  |  | Dose-dependent effect |
|  | CC/C=C\C/C=C\C/C=C\CCCCCCCC(=O)NCCc1ccc(O)c(O)c1 [LINOLEOYL DOPAMINE] | Dose-dependent effect | Dose-dependent effect |  |  | Non-toxic |  | Dose-dependent effect |  |  | Dose-dependent effect |
|  | CCCCCCCCCCCCCCCC(=O)NCCc1ccc(O)c(O)c1 [PALMITOYL DOPAMINE] | Dose-dependent effect | Dose-dependent effect | Toxic | Toxic | Non-toxic | 13 | Dose-dependent effect | 2 | Toxic | Dose-dependent effect |
|  | CCCCCCCC/C=C\CCCCCCCC(=O)NCCc1ccc(O)c(O)c1 [OLEOYL DOPAMINE] | Dose-dependent effect | Dose-dependent effect | Toxic | Toxic | Non-toxic | 13 | Dose-dependent effect | 2 | Toxic | Dose-dependent effect |
|  | CCCCC/C=C\C/C=C\CCCCCCCC(=O)NCCc1ccc(O)c(O)c1 | Dose-dependent effect | Dose-dependent effect | Toxic | Toxic | Non-toxic | 13 | Dose-dependent effect | 2 | Toxic | Dose-dependent effect |
| 2000 | CCCCCCCCC(=O)/C=C/CCCCCCC(=O)NCCc1ccc(O)c(O)c1 | Dose-dependent effect | Dose-dependent effect | Toxic | Toxic | Non-toxic | 13 | Dose-dependent effect |  | Toxic | Dose-dependent effect |
|  | CCCCCCCCCCCCCCCC(=O)NCc1ccc(O)c(OC)c1 | Dose-dependent effect | Dose-dependent effect | Toxic |  | Non-toxic |  |  |  |  | Dose-dependent effect |
